{"source": "patent US20250325536A1", "about": "“THERAPEUTIC USES OF GLP1R AGONISTS” (vTv Therapeutics LLC, priority 2018, published 2025)", "key": {"[1]": {"tested_on": "subjects (humans) with type 2 diabetes", "test": "Phase 2 clinical study of API-1, 12 weeks of treatment, on stable metformin", "type": "in vivo, human", "settings": "for placebo-subtracted decrease from baseline in HbA1c (%): p<0.001", "experimental": "A Phase 2 clinical study was designed as a randomized, double-blind, placebo- controlled, parallel-group multi-center study evaluating the efficacy and safety following 12 weeks of treatment with API-1 in subjects (humans) with type 2 diabetes who were being treated with a stable dose of metformin. Subjects were randomly assigned to one of three treatment groups, API-1 150 mg BID, API-1 150 mg QPM, or placebo with approximately n=52/group. A total of approximately 156 patients were to be randomized into this study and 174 were ultimately randomized. Subjects were enrolled and randomized according to a fixed randomization scheme blocked by study investigative site. Severity of diabetes was determined by HbA1c measures (7.5% to 10%) at screening, confirmed at Baseline, and HbA1c was used as a stratification variable in the randomization scheme: HbA1c less than 8% and 8% or more. Randomization was to be a balanced allocation (1:1:1) among the three treatment groups. Dropouts were not to be replaced. Statistical analyses for topline results included placebo-subtracted change from baseline (LSM-CFB) for HbA1c (primary endpoint) and body weight (secondary endpoint) as well as a post hoc concentration/effect analysis to evaluate the effect of exposure on efficacy."}, "[2]": {"tested_on": "subjects (humans) with T2DM", "test": "Phase 2 dose-ranging study of API-2, 12 weeks of treatment", "type": "in vivo, human", "settings": "Target population (Baseline 8-11%)", "experimental": "A Phase 2 study was designed as a randomized, double-blind, placebo controlled, dose-ranging, parallel group study evaluating the efficacy and safety following 12 weeks of treatment with API-2 in subjects (humans) with T2DM. The study was conducted in 2 parts: Part A and Part B. Part A and Part B were identical except for the dose levels administered. In Part A, subjects received one of two treatments administered orally for 12 weeks: API-2 400 mg QD (n=51) or matching placebo (n=26). In Part B, subjects received one of three treatments administered orally for 12 weeks: API-2 200 mg QD (n=28), API-2 800 mg QD (n=56), or matching placebo (n=26)."}, "[3]": {"settings": "150 mg once daily (QPM) arm, Week 12, completers, 2.2 mg/kg to 1.0 mg/kg"}, "[4]": {"settings": "150 mg twice daily (BID) arm, Week 12, completers, 2.2 mg/kg to 4.8 mg/kg"}}}
{"smiles": "CC[C@@H](c1ccccc1)N1Cc2cc3c(cc2C[C@H]1C(=O)N[C@@H](Cc1ccc(-c2ccnc(C)c2C)cc1)C(=O)O)OC[C@H](c1ccc(OCc2ccc(Cl)c(Cl)c2)cc1)O3.Cl.Cl", "note": "[API-1, (S)-2-{[(3S,8S)-3-[4-(3,4-dichloro-benzyloxy)-phenyl]-7-((S)-1-phenyl-propyl)-2,3,6,7,8,9-hexahydro-[1,4]dioxino[2,3-g]isoquinoline-8-carbonyl]-amino}-3-[4-(2,3-dimethyl-pyridin-4-yl)-phenyl]-propionic acid hydrochloride (1:2)]", "values": [{"measurement": "placebo-subtracted decrease from baseline in HbA1c (%)", "setting": "[1]; 150 mg once daily (QPM) arm, 12 weeks", "value": "0.9±0.2", "unit": "%"}, {"measurement": "dose (mg/kg) response of change from baseline in FPG (FIG. 3)", "setting": "[1]; [3]", "value": "increased as the dose was reduced"}, {"measurement": "dose (mg/kg) response of change from baseline in HbA1c (FIG. 1)", "setting": "[1]; [3]", "value": "increased as the dose was reduced"}, {"measurement": "weight loss (average)", "setting": "[1]; 150 mg once daily arm, 12 weeks, p=0.08", "value": 0.9, "unit": "kg"}, {"measurement": "placebo-subtracted decrease from baseline in HbA1c (%)", "setting": "[1]; 150 mg twice daily (BID) arm, 12 weeks", "value": "0.7±0.2", "unit": "%"}, {"measurement": "dose (mg/kg) response of change from baseline in FPG (FIG. 4)", "setting": "[1]; [4]", "value": "almost unchanged"}, {"measurement": "dose (mg/kg) response of change from baseline in HbA1c (FIG. 2)", "setting": "[1]; [4]", "value": "almost unchanged"}, {"measurement": "weight loss (average)", "setting": "[1]; 150 mg twice daily arm, 12 weeks", "value": 0.6, "unit": "kg"}, {"measurement": "Mean Change from Baseline HbA1c (%)", "setting": "[1]; group 1-1.35 mg/kg (<1.35), Week 4", "value": "−0.57", "unit": "%"}, {"measurement": "Mean Change from Baseline HbA1c (%)", "setting": "[1]; group 1-1.35 mg/kg (<1.35), Week 8", "value": "−1.26", "unit": "%"}, {"measurement": "Mean Change from Baseline HbA1c (%)", "setting": "[1]; group 1-1.35 mg/kg (<1.35), Week 12", "value": "−1.71", "unit": "%"}, {"measurement": "Mean Change from Baseline HbA1c (%)", "setting": "[1]; group 1.35-1.64 mg/kg, Week 4", "value": "−0.35", "unit": "%"}, {"measurement": "Mean Change from Baseline HbA1c (%)", "setting": "[1]; group 1.35-1.64 mg/kg, Week 8", "value": "−0.85", "unit": "%"}, {"measurement": "Mean Change from Baseline HbA1c (%)", "setting": "[1]; group 1.35-1.64 mg/kg, Week 12", "value": "−0.90", "unit": "%"}, {"measurement": "Mean Change from Baseline HbA1c (%)", "setting": "[1]; group 1.65-1.75 mg/kg, Week 4", "value": "−0.21", "unit": "%"}, {"measurement": "Mean Change from Baseline HbA1c (%)", "setting": "[1]; group 1.65-1.75 mg/kg, Week 8", "value": "−0.51", "unit": "%"}, {"measurement": "Mean Change from Baseline HbA1c (%)", "setting": "[1]; group 1.65-1.75 mg/kg, Week 12", "value": "−0.75", "unit": "%"}, {"measurement": "Mean Change from Baseline HbA1c (%)", "setting": "[1]; group 1.76-2.2 mg/kg (>1.75), Week 4", "value": "−0.31", "unit": "%"}, {"measurement": "Mean Change from Baseline HbA1c (%)", "setting": "[1]; group 1.76-2.2 mg/kg (>1.75), Week 8", "value": "−0.43", "unit": "%"}, {"measurement": "Mean Change from Baseline HbA1c (%)", "setting": "[1]; group 1.76-2.2 mg/kg (>1.75), Week 12", "value": "−0.55", "unit": "%"}, {"measurement": "placebo-subtracted decrease from baseline in fasting plasma glucose", "setting": "[1]; once daily arm, 12 weeks", "value": "about 16 mg/dL"}, {"measurement": "reduction from baseline in HbA1c", "setting": "[1]; patients dosed with lower than 1.35 mg/kg, 12 weeks, p<0.01", "value": 1.7, "unit": "%"}, {"measurement": "reduction from baseline in body weight", "setting": "[1]; patients dosed with lower than 1.35 mg/kg, 12 weeks, p<0.05", "value": 3.7, "unit": "kg"}, {"measurement": "placebo-subtracted decrease from baseline in fasting plasma glucose", "setting": "[1]; twice daily arm, 12 weeks", "value": "~17", "unit": "mg/dL"}]}
{"smiles": "CC[C@@H](c1ccccc1)N1Cc2cc3c(cc2C[C@H]1C(=O)N[C@@H](Cc1ccc(-c2ccc(C#N)cc2)cc1)C(=O)O)N(C)C(=O)[C@@H](c1ccc(OCc2ccc(Cl)c(Cl)c2)cc1)O3", "note": "[API-2, (S)-3-(4′-cyano-biphenyl-4-yl)-2-{[(3R,7S)-3-[4-(3,4-dichlorobenzyloxy)-phenyl]-1-methyl-2-oxo-6-((S)-1-phenyl-propyl)-2,3,5,6,7,8-hexahydro-1H-4-oxa-1,6-diaza-anthracene-7-carbonyl]-amino}-propionic acid]", "values": [{"measurement": "Mean Change from Baseline in HbA1c (%)", "setting": "[2]; group 1.4-2.7 mg/kg (<2.7), Week 4", "value": "−0.37", "unit": "%"}, {"measurement": "Mean Change from Baseline in HbA1c (%)", "setting": "[2]; group 1.4-2.7 mg/kg (<2.7), Week 8", "value": "−0.69", "unit": "%"}, {"measurement": "Mean Change from Baseline in HbA1c (%)", "setting": "[2]; group 1.4-2.7 mg/kg (<2.7), Week 12", "value": "−0.79", "unit": "%"}, {"measurement": "Mean Change from Baseline in HbA1c (%)", "setting": "[2]; group 2.8-4.0 mg/kg, Week 4", "value": "−0.47", "unit": "%"}, {"measurement": "Mean Change from Baseline in HbA1c (%)", "setting": "[2]; group 2.8-4.0 mg/kg, Week 8", "value": "−0.86", "unit": "%"}, {"measurement": "Mean Change from Baseline in HbA1c (%)", "setting": "[2]; group 2.8-4.0 mg/kg, Week 12", "value": "−1.09", "unit": "%"}, {"measurement": "Mean Change from Baseline in HbA1c (%)", "setting": "[2]; group 4.1-5.0 mg/kg, Week 4", "value": "−0.36", "unit": "%"}, {"measurement": "Mean Change from Baseline in HbA1c (%)", "setting": "[2]; group 4.1-5.0 mg/kg, Week 8", "value": "−0.78", "unit": "%"}, {"measurement": "Mean Change from Baseline in HbA1c (%)", "setting": "[2]; group 4.1-5.0 mg/kg, Week 12", "value": "−0.85", "unit": "%"}, {"measurement": "Mean Change from Baseline in HbA1c (%)", "setting": "[2]; group 5.1-12.4 mg/kg (>5.0), Week 4", "value": "−0.26", "unit": "%"}, {"measurement": "Mean Change from Baseline in HbA1c (%)", "setting": "[2]; group 5.1-12.4 mg/kg (>5.0), Week 8", "value": "−0.34", "unit": "%"}, {"measurement": "Mean Change from Baseline in HbA1c (%)", "setting": "[2]; group 5.1-12.4 mg/kg (>5.0), Week 12", "value": "−0.34", "unit": "%"}]}
